{
  "source": "patent US5225436A",
  "about": "“Aryl substituted naphthalene derivatives” (Schering Corporation, priority 1991, dated 1993)",
  "key": {"[1]": {"system": "SRS-A / leukotriene release from antigen-challenged, sensitized guinea pig lung", "experiment": "Inhibition of SRS-A (leukotriene) release from antigen-challenged, sensitized guinea pig lung", "type": "cell-based", "conditions": "Cavia porcellus", "outline": "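Chopped sensitized guinea pig lung fragments (~400 mg) preincubated with or without compound 12 min at 37° C in Tyrode's with 10 mM cysteine, then challenged with 20 μg/ml ovalbumin (final) for 15 min. Ethanol-extracted supernatant leukotrienes measured by [3H]LTC4 RIA (55% LTD4 cross-reactivity); % inhibition versus the same lung without compound.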"}, "[2]": {"system": "arachidonic acid induced mouse ear inflammation", "experiment": "Arachidonic acid mouse ear test", "type": "in vivo, mouse (Charles River, female, CD, (SD) BR)", "conditions": "1 mg/ear, topical, 30 minutes prior to AA challenge", "method": "Charles River, female, CD, (SD) BR mice, 6 weeks old, are caged 8/group and allowed to acclimate 1-3 weeks prior to use.\nArachidonic acid (AA) is dissolved in reagent grade acetone (2 mg/.01 ml) and stored at -20° C. for a maximum of 1 week prior to use. Inflammatory reactions are induced by applying […] of AA to both surfaces of one ear ([…] total).\nTest drugs are dissolved in either reagent grade acetone or aqueous ethanol (only if insoluble in acetone) at the same doses selected by Opas et al., Fed. Proc. 43, Abstract 2983, p. 1927 (1984) and Young et al., J. Invest. Dermatol. 82, pp. 367-371 (1984). These doses are employed to ensure maximum responses and to overcome any difference in topical absorption which could occur with any drug applied in an aqueous ethanol vehicle. The test drug is applied 30 minutes prior to challenge with AA.\nThe severity of the inflammation is measured as a function of increased ear weight. A 6 mm punch biopsy is removed 1 hour after AA challenge and weighed to the nearest 0.1 mg. Mean ± standard error and all possible comparisons are made via Duncan's Multiple Range Statistic."}, "[3]": {"system": "anaphylactic bronchospasm (antigen-induced SRS-A mediated bronchoconstriction)", "experiment": "Inhibition of anaphylactic bronchospasm in sensitized guinea pigs", "type": "in vivo, guinea pig", "conditions": "Cavia porcellus, iv, 0.25 h, Dose 10 mpk, read-out: % Inhibition of anaphylactic bronchospasm", "method": "The anti-allergy method of this invention is identified by tests which measure a compound's inhibition of anaphylactic bronchospams-in sensitized guinea pigs having antigen-induced SRS-A mediated bronchoconstriction. Allergic bronchospams was measured in actively sensitized guinea pigs by a modification of the procedure of Konzett and Rossler, Arch. Exptl. Pathol. Pharmakol., 194, pp. 71-74 (1940). Male Hartley guinea pigs were sensitized with 5 mg ovalbumin injected ip and 5 mg injected sc in 1 ml saline on day 1 and 5 mg ovalbumin injected ip on day 4. The sensitized animals were used 3-4 weeks later. To measure anaphylactic bronchospasm, sensitized guinea pigs were fasted overnight and the following morning were anesthetized with 0.9 ml/kp ip dialurethane. The trachea and jugular vein were cannulated and the animals were ventilated by a Harvard rodent respirator. A side arm to the tracheal cannula was connected to a Harvard pressure transducer to obtain a continuous measure of intratracheal pressure. An increase in intratracheal pressure was taken as a measure of bronchoconstriction. Each guinea pig was injected iv with 1 mg/kg propranolol, 5 mg/kg indomethacin and 2 mg/kg mepyramine given together in a volume of […]. Fifteen minutes later, the animals were challenged with antigen (0.5 percent ovalbumin) delivered as an aerosol generated from a DeVilbiss Model 65 ultrasonic nebulizer and delivered through the tracheal cannula for 30 seconds. Bronchoconstriction was measured as the peak increase in intratracheal pressure occurring within 15 minutes after antigen challenge."}, "5-lipoxygenase": {"target": "T1, 5-lipoxygenase (Mus musculus, UniProt P48999)", "T1 construct": "The IL-3-dependent murine mast cell clone, MC-9, was used to test the effects; endogenous in cells; host or cells: MC-9 (IL-3-dependent murine mast cell clone)", "T1 sequence (P48999 1-674)": "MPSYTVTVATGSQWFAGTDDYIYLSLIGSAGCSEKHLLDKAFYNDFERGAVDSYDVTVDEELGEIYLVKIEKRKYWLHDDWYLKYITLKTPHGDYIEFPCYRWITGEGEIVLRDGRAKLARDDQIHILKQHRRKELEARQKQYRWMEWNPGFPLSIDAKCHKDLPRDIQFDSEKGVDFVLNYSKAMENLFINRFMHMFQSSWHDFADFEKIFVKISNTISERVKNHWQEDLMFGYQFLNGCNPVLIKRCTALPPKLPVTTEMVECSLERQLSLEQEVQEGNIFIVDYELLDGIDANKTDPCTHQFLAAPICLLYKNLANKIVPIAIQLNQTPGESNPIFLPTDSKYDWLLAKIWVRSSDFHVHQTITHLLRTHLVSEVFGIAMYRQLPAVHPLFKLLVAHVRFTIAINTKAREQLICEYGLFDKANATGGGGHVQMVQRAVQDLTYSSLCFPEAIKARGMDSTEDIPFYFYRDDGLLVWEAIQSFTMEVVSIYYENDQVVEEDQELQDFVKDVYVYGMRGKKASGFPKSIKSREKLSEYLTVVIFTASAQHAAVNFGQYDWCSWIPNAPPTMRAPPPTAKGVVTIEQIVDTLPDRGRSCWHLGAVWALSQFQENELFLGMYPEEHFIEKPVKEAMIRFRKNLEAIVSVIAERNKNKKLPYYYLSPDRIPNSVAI", "experiment": "5-Lipoxygenase assay (murine mast cell clone MC-9)", "type": "cell-based", "conditions": "MC9, 5 min, MC-9 cell", "method": "The IL-3-dependent murine mast cell clone, MC-9, was used to test the effects of representative compounds of the invention on lipoxygenase activity. The MC-9 cell line was grown in suspension culture (0.4 to 1.2×10^6 cells/ml) in RPMI 1640 medium (Gibco) with 10% fetal bovine serum (Hyclone) and 2-5% conconavalin-A conditioned supernatant (Musch et. al., (1985) Prostagandins 29, 405-4307. Cells were harvested, washed twice by centrifugation, and resuspended in a Ca^++ -free HEPES buffer (25 mM HEPES, 125 mM NaCl, 2.5 mM KCl 0.7 mM MgCl2, 0.5 mM EGTA and 10 mM glucose at pH 7.4).\nMC-9 cells (0.39 ml at 7.5×10^6 cells/ml) were preincubated with dimethylsulfoxide (DMSO) vehicle with or without test compound (1 ul) for 4 minutes then incubated for 5 minutes with [^14 C] arachidonic acid (Amersham, 59 Ci/mole) at a 9 uM final concentration, and A23187 (Calbiochem) at a 1 uM final concentration was added in 10 ul of water:ethanol (9:1). The reaction was stopped by addition of methanol (0.4 ml), and cellular debris was removed by centrifugation. Aliquots (250 ul) of the incubations were run on a Waters two pump HPLC system fitted with a Waters C18, 10 u 8×100 mm u-Bondapak radial compression column and C18 \"Guard Pak\". The column was initially eluted at 3 ml/min with water:methanol:acetic acid (67:33:0.08) containing 1 mM EDTA adjusted to pH 6.0 with ammonium hydroxide (Pump A). At 4 minutes, a linear gradient to reach 100% methanol (Pump B) at 9 minutes was established. Between 13 and 14 minutes, methanol was exchanged for the initial eluting solvent and by 19 minutes the column had been reequilibrated for the next sample. The effluent was analyzed by a continuous flow radioactivity monitor (model ROMONA-D) interfaced with a Hewlett Packard Lab Automation System for quantitation of radioactive products. These were predominantly leukotriene C4 (LTC4) which eluted at 6 minutes, and 5-hydroxyeicosatetraenoic acid (5-HETE) which eluted at 11 minutes (Musch et. al., supra)."}},
  "note": "Counter-ions that a name gives are not always drawn. Like-named read-outs stand apart in the source and are kept apart here.",
  "data": [
    {"molecule": "COc1cc(OC)c2c(c1)C(C)(C)C(c1ccc(OC)c(OC)c1)CC2=O", "note": "(centres unmarked) [3-(3,4-dimethoxyphenyl)-6,8-dimethoxy-4,4-dimethyl-3 4-dihydro-1(2H)-naphthalenone]", "values": [
      {"measurement": "inhibition at 50 µM", "setting": "[1]", "value": 62, "unit": "%"},
      {"measurement": "inhibition (increased ear weight)", "setting": "[2]", "value": 50, "unit": "%"},
      {"measurement": "inhibition in vivo at 10 mg/kg", "setting": "[3]", "value": 0, "unit": "%"},
      {"measurement": "inhibition at 5 µM", "setting": "5-lipoxygenase; read-out: % Inhibition 5-HETE", "value": 29, "unit": "%"},
      {"measurement": "inhibition at 5 µM", "setting": "5-lipoxygenase; read-out: % Inhibition LTC4", "value": 36, "unit": "%"},
      {"measurement": "inhibition at 50 µM", "setting": "5-lipoxygenase; read-out: % Inhibition 5-HETE", "value": 100, "unit": "%"},
      {"measurement": "inhibition at 50 µM", "setting": "5-lipoxygenase; read-out: % Inhibition LTC4", "value": 99, "unit": "%"}
    ]},
    {"molecule": "CC1(C)C(c2ccc(O)c(O)c2)=CC(=O)c2c(O)cc(O)cc21", "note": "[3-(3,4-dihydroxyphenyl)-6,8-dihydroxy-4,4-dimethyl-1(4H)-naphthalenone]", "values": [
      {"measurement": "inhibition at 50 µM", "setting": "[1]", "value": 77, "unit": "%"},
      {"measurement": "inhibition (increased ear weight)", "setting": "[2]; listed as 3-(3,4-dihydroxyphenyl)-6,8-dihydroxy-4,4-dimethyl-1(4H)-naphthalenone", "value": 60, "unit": "%"},
      {"measurement": "inhibition in vivo at 10 mg/kg", "setting": "[3]", "value": 17, "unit": "%"},
      {"measurement": "inhibition at 2 µM", "setting": "5-lipoxygenase; read-out: % Inhibition 5-HETE", "value": 52, "unit": "%"},
      {"measurement": "inhibition at 2 µM", "setting": "5-lipoxygenase; read-out: % Inhibition LTC4", "value": 33, "unit": "%"},
      {"measurement": "inhibition at 5 µM", "setting": "5-lipoxygenase; read-out: % Inhibition 5-HETE", "value": 76, "unit": "%"}
    ]},
    {"molecule": "CC1(C)C(c2ccc(O)c(O)c2)=C(O)C(=O)c2c(O)cc(O)cc21", "note": "[3-(3,4-dihydroxyphenyl)-2,6,8-trihydroxy-4,4-dimethyl-1(4H)-naphthalenone]", "values": [
      {"measurement": "inhibition at 50 µM", "setting": "[1]", "value": 81, "unit": "%"},
      {"measurement": "inhibition (increased ear weight)", "setting": "[2]", "value": 68, "unit": "%"},
      {"measurement": "inhibition at 5 µM", "setting": "5-lipoxygenase; read-out: % Inhibition 5-HETE", "value": 43, "unit": "%"},
      {"measurement": "inhibition at 50 µM", "setting": "5-lipoxygenase; read-out: % Inhibition 5-HETE", "value": 95, "unit": "%"}
    ]},
    {"molecule": "CC1(C)C(c2ccc(O)c(O)c2)=CC(=O)c2c(O)cc(O)cc21", "note": "[trisodium salt of 3(3 4-dihydroxy-phenyl)-6,8-dihydroxy-4,4-dimethyl-1(4H)-naphthalenone]", "values": [
      {"measurement": "inhibition (increased ear weight)", "setting": "[2]", "value": 90, "unit": "%"}
    ]},
    {"molecule": "COc1cc(OC)c2c(c1)C(C)(C)C(c1ccc(OC)c(OC)c1)=CC2=O", "values": [
      {"measurement": "inhibition at 50 µM", "setting": "[1]", "value": 55, "unit": "%"},
      {"measurement": "inhibition in vivo at 10 mg/kg", "setting": "[3]", "value": 36, "unit": "%"},
      {"measurement": "inhibition at 5 µM", "setting": "5-lipoxygenase; read-out: % Inhibition 5-HETE", "value": 9, "unit": "%"},
      {"measurement": "inhibition at 5 µM", "setting": "5-lipoxygenase; read-out: % Inhibition LTC4", "value": 17, "unit": "%"},
      {"measurement": "inhibition at 50 µM", "setting": "5-lipoxygenase; read-out: % Inhibition 5-HETE", "value": 95, "unit": "%"},
      {"measurement": "inhibition at 50 µM", "setting": "5-lipoxygenase; read-out: % Inhibition LTC4", "value": 100, "unit": "%"}
    ]},
    {"molecule": "CC(=O)Oc1cc(OC(C)=O)c2c(c1)C(C)(C)C(c1ccc(OC(C)=O)c(OC(C)=O)c1)=CC2=O", "note": "[3-(3,4-diacetyloxyphenyl)-6,8-diacetyloxy-4,4-dimethyl-1(4H)-naphthalenone]", "values": [
      {"measurement": "inhibition at 50 µM", "setting": "[1]", "value": 48, "unit": "%"},
      {"measurement": "inhibition in vivo at 10 mg/kg", "setting": "[3]", "value": 7, "unit": "%"},
      {"measurement": "inhibition at 5 µM", "setting": "5-lipoxygenase; read-out: % Inhibition 5-HETE", "value": 53, "unit": "%"},
      {"measurement": "inhibition at 5 µM", "setting": "5-lipoxygenase; read-out: % Inhibition LTC4", "value": 43, "unit": "%"}
    ]},
    {"molecule": "COc1cc(OC)c2c(c1)C(C)(C)C(c1ccc(OC)c(OC)c1)CC2=NO", "note": "(centres unmarked)", "values": [
      {"measurement": "inhibition at 10 µM", "setting": "[1]; Dose 10 μm", "value": 35, "unit": "%"},
      {"measurement": "inhibition at 50 µM", "setting": "[1]", "value": 75, "unit": "%"},
      {"measurement": "inhibition in vivo at 10 mg/kg", "setting": "[3]", "value": 50, "unit": "%"},
      {"measurement": "inhibition at 1 µM", "setting": "5-lipoxygenase; read-out: % Inhibition 5-HETE", "value": 28, "unit": "%"},
      {"measurement": "inhibition at 1 µM", "setting": "5-lipoxygenase; read-out: % Inhibition LTC4", "value": 26, "unit": "%"},
      {"measurement": "inhibition at 5 µM", "setting": "5-lipoxygenase; read-out: % Inhibition 5-HETE", "value": 100, "unit": "%"},
      {"measurement": "inhibition at 5 µM", "setting": "5-lipoxygenase; read-out: % Inhibition LTC4", "value": 65, "unit": "%"}
    ]},
    {"molecule": "COc1cc(O)c2c(c1)C(C)(C)C(c1ccc(O)c(O)c1)=CC2=O", "note": "[3-(3,4-dihydroxyphenyl)-8-hydroxy-6-methoxy-4,4-dimethyl-1(4H)-naphthalenone]", "values": [
      {"measurement": "inhibition at 50 µM", "setting": "[1]", "value": 43, "unit": "%"},
      {"measurement": "inhibition (increased ear weight)", "setting": "[2]", "value": 65, "unit": "%"},
      {"measurement": "inhibition at 5 µM", "setting": "5-lipoxygenase; read-out: % Inhibition 5-HETE", "value": 60, "unit": "%"}
    ]}
  ]
}
